The test system of test [1] is Synechocystis PCC 6803. The test is described as follows: Susceptibility of Synechocystis PCC 6803 to known herbicides (Table 2). In kind it is cell-based. The method, then:
(§1) To identity a target site gene activity, two types of Bluegreen algae, Synechocystis PCC 6803 (American Type Culture Collection, Rockville, Md.) and Anabaena PCC 7120 (American Type Culture Collection, Rockville, Md.) can be used for the screen. One is grown in microtiter dishes in BG-11 medium supplemented with various concentrations of the test compounds. Inhibition of growth can be monitored by visual inspection after two to three days of culture. Quantitative growth measurements can be taken photometrically starting one day after inoculation.
(§2) Alternatively screens can be performed on agar plates with “lawns” of cyanobacteria and paper discs impregnated with test compounds. In this case, zones of inhibited growth around paper discs can be detected after two or three days.
(§3) To set up the assay, wild type cells of Synechocystis were mixed with equal volumes of 2× top agar and 2× BG-11 and overlaid on top of BG-11 agar plate. Cells normally appear in 3-5 days after plating. This method will yield an even and uniform lawn of cells. Upon solidifying, test compounds are then spotted on Whatman filter paper disc before being placed on agar plates. Four compounds can be tested on a single plate. Using this screening, in an example employing 160 different compounds, predominantly compounds of novel mode of action, have been tested on this microbe, and on average, 25% of the compounds show at least some activity.
A rapid plate based assay for screening lead compounds was developed as follows. First, either one of two types of bluegreen algae, Synechocystis PCC6803 and Anabaen PC 7120 were grown in microtitre dishes containing BG-11 supplemented with various concentrations of 160 different test compounds. Alternatively, screens can be performed on agar plates with lawns of cyanobacteria and paper discs impregnated with test compounds.
(§4) A rapid plate based assay for screening and identifying active compounds is then performed. Wild type cells of Synechocystis are mixed with equal volumes of 2× top agar and 2× BG-11. The mixture is then overlaid on top of a BG-11 agar plate. Cells normally appear 3-5 days after plating. This method will yield an even and uniform lawn of cells.
(§5) After solidification of the agar, test compounds were spotted on Whatman filter paper disc, and then were placed on agar plates. Four different compounds were tested on a single plate. Using this screening method, 160 different compounds were tested, predominantly compounds of novel mode of action. On average, 25% of the compounds show at least some activity.
Cyanobacteria are a particularly useful source of genes for enhancing crop performance due to their similarity, and ancestral connection, to plant chloroplasts. In particular, cyanobacterial genes may be useful for transformation directly into the chloroplast genome due to similarities in genetic elements. Similarities in cyanobacterial genes and proteins to those from chloroplasts can carry over to a shared susceptibility to herbicides.

In test [2] the test system is 4′-fluoro-6-[(alpha,alpha,alpha,-trifluoro-m-toly)oxy]-picolinamide resistant mutants. As to the kind of experiment: Cross-resistance test of resistant mutants against other PDS inhibitors. In kind it is cell-based, Synechocystis.
Test [3] relates to wild type Synechocystis PCC6803. As to the kind of experiment: Paper disc assay on BG-11 agar, wild type Synechocystis. The format is cell-based.
Source text: as §2, §3
Susceptibility of Synechocystis to 4′-fluoro-6-[(alpha,alpha,alpha,-trifluoro-m-toly)oxy]-picolinamide was tested using a paper disc assay in which 4′-fluoro-6-[(alpha,alpha,alpha,-trifluoro-m-toly)oxy]-picolinamide was spotted in a paper disc before being placed on a lawn of cells. In determining susceptibility, the size of the zone of inhibition is indicative of the potency of the compound.
as §4, §5
The resistant phenotype of selected mutant cell lines was further tested in solid medium as well as in suspension cultures. […]

Test [4] has as its system Synechocystis EMS resistant mutant cell lines. The test is described as follows: Dose-response in suspension culture, resistant mutant cell lines. The conditions noted are these: seven days, read-out: I50. In kind it is cell-based, Synechocystis PCC6803. As to the method:
(§6) These experiments also established a dose-response curve. A lethal concentration for resistant mutant selection was 1-2 μM of 4′-fluoro-6-[(alpha,alpha,alpha,-trifluoro-m-toly)oxy]-picolinamide. Dose-response studies were also performed in 96-sell microtiter plates on wild type and putative 4′-fluoro-6-[(alpha,alpha,alpha,-trifluoro-m-toly)oxy]-picolinamide resistant mutants of Synechocystis. The growth of the culture was measured daily at an optical density of 690 nm.
(§7) For wild type cells (WT), the growth was inhibited at concentrations of 4′-fluoro-6-[(alpha,alpha,alpha,-trifluoro-m-toly)oxy]-picolinamide of <0.25 μM, with an I50 in the sub μM range. By contrast, the I50 values are between 1-2 μM for 5-1/12E, and in the range of 5-10 μM for 7-3/12F and 7-4/12F, respectively.
(§8) Wild type cells were inhibited at concentrations of <0.25 uM 4′-fluoro-6-[(alpha,alpha,alpha,-trifluoro-m-toly)oxy]-picolinamide, with an I50 in the sub μM range. In contrast I50 values are between 1-2 μM for 5-1/12E and 5-1/12F, and between 5-10 μM for 7-3/12F and […]. Thus, because the cell lines with the mutant pds genes are far more resistant than wild type cell lines, there is evidence that the selected cultures contain 4′-fluoro-6-[(alpha,alpha,alpha,-trifluoro-m-toly)oxy]-picolinamide resistance.

The subject of test [5] is wild type Synechocystis. The test is described as follows: Dose-response in liquid/suspension culture, wild type Synechocystis. In kind it is cell-based, Synechocystis PCC6803. As to the method:
as §1, §6, §7, §8

Test [6] relates to Anabaena AHAS. The test is described as follows: In vitro AHAS assay. The conditions noted are these: 100 nM. In kind it is biochemical, Anabaena PCC7120. As to the method:
(§9) AHAS is the target site of both PURSUIT® imazethapyr and OUST® sulfometuron methyl herbicides. To determine if resistance to the herbicides is due to a natural resistance to inhibition of the acetohydroxyacid synthase enzymes from the cyanobacteria, or if it is due to alternative mechanisms (e.g. lack of entry into the cell), the in vitro activity of the AHAS enzyme in the presence of the herbicides was tested.
(§10) AHAS assays were performed with slight modification as described by Singh et. al (Singh B K, Stidham M A, Shaner D L, 1988, Assay for acetohydroxyacid synthase from plants. Anal Biochem 171: 173-179).
(§11) Synechocystis PCC6803 and Anabaena PCC7120 were cultured in 1.5 L of BG-11 media. Cells were collected by centrifuge and stored frozen at −80° C. Frozen cells were thawed and placed in a 30 mL Bead Beater cell disruptor chamber (BioSpec Corp Bartlesville, Okla.). Seven mL of acid washed sand was added. The chamber was filled with 2× ASHA assay buffer, consisting of 100 mM HEPES pH7.0, 200 mM pyruvate, 20 mM MgCl2, 2 mM TPP (Thiamine pyrophosphate) and 100 μM FAD (flavin adenine dinucleotide).
(§12) The Bead Beater cell disruptor was packed in ice and turned on for 10 seconds, followed by cooling for 3 minutes. This cycle was repeated five times. The extract was transferred into a centrifuge tube, and spun in a Beckman SA20 (Beckman, Fullerton, Calif.) rotor for 15 minutes at 17,000 rpms. […]

Test [7] relates to Anabaena PCC7120. The test is described as follows: In vivo growth in BG-11 media with commercial herbicides. In kind it is cell-based. As to conditions: 100 nM, one week of culture in BG-11 media. As to the method:
(§13) In vivo resistance of cyanobacteria to PURSUIT® imazethapyr and OUST® sulfometuron methyl. As a preliminary matter, Synechocystis PCC6803 and Anabaenia PCC7120 were tested for susceptibility to PURSUIT® imazethapyr and OUST® sulfometuron methyl. AHAS genes which are resistant to these herbicides are excellent candidates for transformation in plant plastomes and nuclear genomes. Such transformants can be used in a weed control strategy using a combination of transgenic herbicide resistant crops and herbicides.
(§14) In vivo testing of Synechocystis PCC6803 and Anabaena PCC7120 was done by culturing the organisms in varying concentrations of the commercial herbicides. […] For relative comparison purposes a concentration of 1 μM PURSUIT® imazethapyr in agar media is lethal to Arabidopsis plants.

For test [8], the system named is Synechocystis PCC6803. The test is described as above. The format is cell-based. As to conditions: 100 nM, one week of culture in BG-11 media. The method, then: as §13, §14
For test [9], the system named is Synechocystis AHAS. The test is described as follows: In vitro AHAS assay. In kind it is biochemical, Synechocystis PCC6803. The conditions noted are these: 100 nM. As to the method:
as §9, §10, §11, §12

For test [10], the system named is E. coli M1262 expressing the cyanobacterial ahas gene. As to the kind of experiment: Growth on minimal media of E. coli M1262 expressing the cyanobacterial ahas gene. The format is cell-based. The text has this:
To confirm that these plasmids carry functional AHAS sequences, plasmid DNA from each of the ten rescued colonies was transformed into the E. coli strain M1262. (leuB6, ilv1614, ilvH612, λ^−, relA1, spoT1, ilvB619, ilvG603, ilfG605(am), thi-1) (Genetics Stock Center, Yale University). This strain of E. coli is lacking in AHAS. […] The ahas gene can therefore be used for achieving herbicide tolerance in crops by transformation into the nuclear or plastidic genome.

Setting [11] is: wild type cells, suspension culture, seven days.

Read-outs that look alike come from different tables or passages of the source.

`CN(C)C(=O)Nc1ccc(Cl)cc1` [CMU]: the “Activity Rating (++ = highest)” value in [1] is given as “+”.

In the case of `CC(=O)/C(C(=O)c1ccc(Cl)cc1Cl)=C(/N)SCc1ccccc1` [(2E)-2-[amino(benzylsulfanyl)methylene]-1-(2,4-dichlorophenyl)-1,3-butanedione], the “cross-resistance of the resistant mutants” value (“cross-resistance” for short) in test [2] is recorded as “exhibited cross-resistance”.

Consider `COC(=O)Nc1cccc(OC(=O)Nc2cccc(C)c2)c1` [Phenmedipham], for which the “Activity Rating (++ = highest)” value in test [1] is “++”.

As for `O=C(Nc1cccc2c1C(=O)c1cccc(NC(=O)c3cc(C(=O)Nc4cccc5c4C(=O)c4cccc(NC(=O)c6ccccc6)c4C5=O)c(C(=O)Nc4cccc5c4C(=O)c4cccc(NC(=O)c6ccccc6)c4C5=O)cc3C(=O)Nc3cccc4c3C(=O)c3cccc(NC(=O)c5ccccc5)c3C4=O)c1C2=O)c1ccccc1` [1,2,4,5-benzenetetracarboxamide,N,N′,N″,N′″-tetrakis[5-(benzoylamino)-9,10-dihydro-9,10-dioxo-1-anthracenyl]], in test [2], the “cross-resistance” value is “exhibited cross-resistance”.

Turning to `Cc1cc(OCC=C(Cl)Cl)nc(Oc2ccnc(C(F)(F)F)c2)c1` [pyridine, 2-[(3,3-dichloro-2-propenyl)oxy]-4-methyl-6-[(2-(trifluoromethyl)-4-pyrodinyl]oxy]], the “cross-resistance” value in [2] is “exhibited cross-resistance”.

Regarding `O=C(Nc1ccc(F)cc1)c1cccc(Oc2cccc(C(F)(F)F)c2)n1` [4′-fluoro-6-[(alpha,alpha,alpha,-trifluoro-m-toly)oxy]-picolinamide], in test [3] (BG-11 solid medium, paper disc assay), the “concentrations active against Synechocystis PCC6803” value fell in the range of 1 to 2 µM. In addition, the “lethal concentration for resistant mutant selection” value in test [3] (Synechocystis) was 1 to 2 µM. In addition, in [3] (paper disc assay, 0.5 nmol), the “growth of wild type Synechocystis” value was “significantly inhibited”. Also, the IC50 is 1 to 2 µM in [4] (mutant 5-1/12E); 1 to 2 µM in test [4] (mutant 5-1/12F); 5 to 10 µM in test [4] (mutant 5-4/12F); 5 to 10 µM in test [4] (mutant 7-3/12F); 5 to 10 µM in test [4] (mutant 7-4/12F). Besides, in test [5] (liquid cultures), the “I50 of growth inhibition” value was “lower sub-micromolar range”. Moreover, the I50 result in [5] (setting [11]) was “sub μM range”. The “concentration at which growth was inhibited” value in [5] (setting [11]) was less than 0.25 µM.

Consider `CN(C)C(=O)Nc1ccc(Cl)cc1` [Monuron], for which the “Activity Rating (++ = highest)” value in test [1] is recorded as “++”.

Consider `CCOC(=O)Nc1cccc(OC(=O)Nc2ccccc2)c1` [Desmedipham], for which the “Activity Rating (++ = highest)” value in test [1] is given as “++”.

Regarding `CN(C)C(=O)Nc1ccccc1` [Fenuron], the “Activity Rating (++ = highest)” value in test [1] is “++”.

In the case of `COC(=O)c1ccccc1S(=O)(=O)NC(=O)Nc1nc(C)cc(C)n1` [OUST® sulfometuron methyl, sulfometuron methyl], the “inhibition of AHAS enzyme” value in [6] and in test [9] was “No significant inhibition” throughout. Moreover, the inhibition of growth entry in test [7] and in [8] was “No inhibition of growth” in each case. In addition, in test [10], the “growth on minimal media in the presence of the herbicide” value was “capable of growing”.

In the case of `N#Cc1cc(Br)c(O)c(Br)c1` [Bromoxynil], the “Activity Rating (++ = highest)” value in test [1] was “+”.

`CCNc1nc(Cl)nc(NCC)n1` [Simazine]: in test [1], the “Activity Rating (++ = highest)” value is “++”.

For the origin of these results see patent US7285701B2, “Cyanobacterial nucleic acid fragments encoding proteins useful for controlling plant traits via nuclear or plastome transformation” (BASF Plant Science GmbH, priority 2001, dated 2007).
